Measured values taken from publication PMC10079954, “Rational design of phase separating peptides based on phase separating protein sequence of p53” (Scientific Reports, 2023).

Columns and labels:
[1] = Cross-β structure detection with amyloid-sensitive probe Picogreen; type: physicochemical
Experimental: Differential interference contrast (DIC) microscopy confirmed that these peptides (0.9–1.8 mM) underwent phase separation in 25 mM HEPES and 0.5 mM EDTA at pH 7.0 (Fig. 2B). To prevent the melting of clusters on the coverslip surface, 2-methacryloyloxyethyl phosphorylcholine (MPC) polymer coating was used[36],[37] (Supplementary Fig. S1). Samples were prepared by sonicating a 2 mM peptide solution or diluting the peptide solution from a 10 mM peptide stock after storage under freezing conditions. Four of the designed peptides, except DPp53N-GSGS-DPp53C2, formed μm-sized spherical clusters. Fluorescence microscopy confirmed the high concentration of peptides labeled with the fluorescent dye Alexa488 in the clusters (Fig. 2B). […] Cross-β structure was also supported by the observation of intrinsic fluorescence upon 400–440 nm excitation[40] (Supplementary Fig. S2). Clusters of aromatic W residues in DPp53N-GSGS-DPp53C2 may lead to the formation of solid aggregates, which is consistent with the results of different systems[21],[34].
The DIC and fluorescence modes of an inverted microscope (IX-73; Olympus, Tokyo, Japan) equipped with microscopic objectives (60 × and 10 ×) and a camera (DP74) were used, as described previously. We used the solution containing 0.9–1.8 mM designed peptide, 0.1 μM Alexa488-labeled peptide, 25 mM HEPES, and 0.5 mM EDTA at pH 7.0. To detect the cross-β structure, picogreen was added at 25 µM for DPp53N-GSGS-DPp53C2 or 2.5 µM for others instead of the Alexa488-labeled peptide. […] DIC and fluorescence images were obtained at 20 or 22 °C. For intrinsic fluorescence measurements, the excitation and detection wavelengths were 440–440 nm and larger than 460 nm, respectively.
Fig. S8 Time course of cross-β structure formation of designed peptides in droplets monitored by DIC and fluorescence images. The fluorescence was detected corresponding to the amyloid marker Picogreen at 2.5 µM in a solution containing 0.9 mM designed peptides, 25 mM HEPES, and 0.5 mM EDTA at pH 7.0 and 22 °C.

[2] = system: p53 monomer (L344P) mutant; test: Recruitment (enrichment index) of p53 monomer into designed peptide droplets; design: species or system human; conditions: (GGGS)3-linker versus GSGS-linker droplets; no salt, pH 7.0
Text: (§1) We prepared p53 tetramer, dimer, and monomer mutants, as described previously[8],[37],[50]. For the p53 tetramer, a thermostable and cysteine-modified human p53 mutant (C124A, C135V, C141V, W146Y, C182S, V203A, R209P, C229Y, H233Y, Y234F, N235K, Y236F, T253V, N268D, C275A, C277A, and K292C) was used[50]. The dimer and monomer mutants of p53 corresponded to L344A and L344P of the tetramer sequence, respectively[8],[37]. These p53 mutants were expressed with a glutathione S-transferase (GST) tag in E. coli and purified after cleavage of the GST tag, as described previously[50],[51]. The oligomeric state of p53 mutants was confirmed using a gel filtration column (Superdex 200; GE Healthcare). p53 mutants were labeled with Atto488 (ATTO-TEC) or Alexa488 (Thermo Fisher) using maleimide chemistry and then purified using a heparin column (GE Healthcare). We prepared Alexa488-labeled FUS-MBP as described previously[37],[39].
(§2) Recruitment evaluations were performed following the method described in our previous studies[37],[41]. Solutions containing 0.9–1.8 mM designed peptides, 0.1 µM Alexa488-labeled p53 mutants or Alexa488, 25 mM HEPES, 0.5 mM EDTA, and 1 mM DTT at pH 7.0 were used. The solutions were then incubated at 22 °C for five minutes. The aforementioned microscope was used with HILO illumination. To prevent photo-bleaching of the fluorescent samples, we used a laser power of 0.15 mW. The images were acquired at 22 °C. Using the ImageJ software, we calculated the EI values of the individual droplets as follows:2 EI=Idroplet/Isolution, where Idroplet and Isolution represent the average fluorescence intensities of the individual droplets and solutions near the droplets with background substitution, respectively.

[3] = system: p53 tetramer; test: Recruitment (enrichment index) of p53 tetramer into designed peptide droplets; design: species or system human; conditions: (GGGS)3-linker versus GSGS-linker droplets; no salt, pH 7.0
Text: as §1, §2

RRRVVQRRRRGGGSGGGSGGGSDDDASQEDDD [DPp53N-(GGGS)3-DPp53C1]
Picogreen fluorescence intensity in droplets versus solution ([1]; Picogreen 2.5 µM, 0.9 mM designed peptide, 25 mM HEPES, 0.5 mM EDTA, pH 7.0, 22 °C): higher than that in the solution
Cross-β structure and state of droplets after long-term incubation ([1]; long-term incubation): gel-like assemblies of the droplets
Decrease of average EI of p53 monomer mutant compared to the GSGS-linker peptide [2]: 1.2 fold
Increase of average EI of p53 tetramer compared to the GSGS-linker peptide [3]: 1.8 fold
